Assay: SMIP encapsulation efficiency (UPLC of pellet and supernatant)
Assay type: physicochemical
Details: RG 502H 2% w/v nanoparticles, theoretical SMIP loading 2% w/w of PLG
Experimental: Nanoparticles with a theoretical SMIP loading level of 2% w/w of PLG were prepared for the SMIP encapsulation study. Both water (pH 5.5-6) and Tris EDTA buffer (pH 7-8) were used for the aqueous phases. […] Since, a basic SMIP is being employed here, Tris EDTA buffer was used for the aqueous phase, which maintained the pH of the suspension between 7 and 8.
The encapsulation efficiency was calculated as a ratio of mass of SMIP in the nanoparticles to the mass of SMIP used in the formulation. More particularly, the nanoparticle suspension was aliquoted (1 ml) into 2 vials and centrifuged at 16000 RPM for 30 minutes. The amount of SMIP in the supernatant was determined using an ultra performance liquid chromatography (Waters Acquity UPLC, Milford, Mass., USA) assay. The pellet was washed three times and the amount of SMIP in the pellet was determined after hydrolyzing the pellet with sodium hydroxide, followed by neutralization with hydrochloric acid. Encapsulation efficiency was calculated as ratio of the SMIP in the pellet to the total SMIP content of the suspension. Mass balance was achieved by hydrolyzing 1 ml of the suspension and determining the total SMIP content in 1 ml of the suspension.

## CCCN(C)c1nc2c(N)nc3ccccc3c2n1CC(C)(C)O [SMIP]
Tris EDTA buffer (pH 7-8) as aqueous phase
  encapsulation efficiency: greater than 90%
Water (pH 5.5-6) as aqueous phase
  encapsulation efficiency: 40-50%
